Measured values reported in patent US20040197855A1, “Test system for determining gene toxicities” (priority 2001, published 2004).

Tests used:
[1] = system: GalER-VP; assay: Estradiol-inducible expression of I-SceI meganuclease in KMV cells; assay type: cell-based, human; settings: KMV clones with genomic pGC-Sce; Gal4 recognition sequence promoter
Source text: In order to achieve controlled meganuclease expression because of the antiproliferative effect of DSBs, the extremely reliable, β-estradiol-inducible expression system was selected according to a preferred embodiment of the invention (Braselmann, S. et al. (1993) Proc. Natl. Acad. Sci. USA 90: 1657-1661; Dudenhöffer, C. (1999) Oncogene 18: 5773-5784). The expression system couples the so-called Gal4ER transcription factor to an expression cassette controlled by a Gal4ER-responsive promoter (compare FIG. 2). Gal4ER represents a fusion protein of the DNA binding domain of the Gal4 transcription factor with the strong, viral VP16 transactivator domain and a β-estradiol binding domain of the human β-estradiol receptor, making Gal4ER functionally inducible as transcription factor by β-estradiol. This principle of conditional expression permits an inducible increase in protein expression by at least one order of magnitude. […] Inducible I-SceI expression was detected in Western blot experiments. […]

[2] = system: Salmonella typhimurium; settings: cited from earlier work
[3] = system: yeast and mammalian cells; settings: cited from earlier work
[4] = system: rats; settings: cited from earlier work
[5] = system: mice; settings: cited from earlier work

SMILES: C[C@]12CC[C@@H]3c4ccc(O)cc4CC[C@H]3[C@@H]1CC[C@@H]2O [β-estradiol]
- lowest concentration for complete promoter induction [1]: 50 nM

SMILES: Cc1ccccc1N [o-toluidine]
- result in the Ames assay [2]: negative
- recombination events leading to deletions [3]: triggered
- tumours in rats [4]: cause tumours
- tumours in mice [5]: cause tumours
